Measured values published in publication PMC8584989 (International Journal of Molecular Sciences, 2021).
pIC50: −log10 of the molar value.

Key:
[1] = XTT proliferation / drug combination assay; conditions: human
[2] = system: ABC transporters and CYPs; assay: Gene expression (induction) studies by qRT-PCR; format: cell-based, human; conditions: 1.5 µM tepotinib; DI-related models, NSCLC cell lines and primary NSCLC cultures
Procedure: Gene expression studies were performed employing quantitative real-time reverse transcription PCR (qRT-PCR) technique as described in our previous papers.
The Caco-2, LS174T, A549, NCI-H1299 cells or primary lung cancer cells were seeded on 12-well plates with the densities of 50 × 10^4, 100 × 10^4, 24 × 10^4, 18 × 10^4 or 15 × 10^4 cells/well, respectively, and incubated for 24 h. […] Samples were collected at 24 h and 48 h intervals after drug treatment using TRI Reagent and then, mRNA isolation was performed. Agarose gel electrophoresis was used for the control of RNA quality and integrity and the RNA yield was monitored via NanoDrop ND-1000 spectrophotometer (American Laboratory Trading, East Lyme, CT, USA). RNA (1000 ng) was transcribed to cDNA using gb Reverse Transcription Kit. ABCB1, ABCG2 and ABCC1 mRNA expressions were detected with Master Mix and TaqMan-based qRT-PCR systems using QuantStudio 6 (Life Technologies, Carlsbad, CA, USA). […]
In the case of the HepaFH3 hepatocytes, first, viability was analyzed with CellTiter-Glo 2.0 Viability Assay; the luminescence was measured using a microplate reader (FLUOstar Omega, BMG Labtech, Ortenberg, Germany). […] RNA integrity and quality was checked by agarose gel electrophoresis and the concentration assessed by NanoDrop. […]

[3] = target: T1, CYP2C9 (Homo sapiens, UniProt P11712); assay: Vivid CYP450 Screening Kit, recombinant CYP2C9; format: in vitro ADME; conditions: recombinant enzyme; read-out: CYP2C9 inhibition IC50
T1 construct: purchased Thermo Fisher Scientific
Procedure: (§1) CYP inhibitory assay was performed using Vivid CYP450 screening kit as described previously. The kits consist of microsomal fraction containing human CYP isoforms, human CYP reductase and in several cases cytochrome b5. Experiments were performed following the manufacturer’s protocol on black 96-well plates using kinetic mode. […] Then, the master mix (CYP isoenzyme with an NADPH regeneration system in buffer) was added in each well and plate was pre-incubated for 10 min. The reaction was started with the mixture of NADP^+ and Vivid substrate and the fluorescence of samples was measured in 1 min interval for 60 min using an Infinite M200 Pro microplate reader (Tecan, Männedorf, Switzerland). Data from linear phase (15 min) were used for data evaluation.

[4] = system: KB drug resistant cell lines; conditions: in vitro KB drug resistant cell lines; cited from earlier work
[5] = system: A431-ABCC1 cells; assay: MTT proliferation assay (comparative viability); format: cell-based; conditions: single drug, 48 h
Procedure: (§2) These colorimetric assays were used in various studies presented in this paper (prior induction studies, MDR reversal experiments and comparative viability assays) and were performed as reported previously. […] In MTT experiments, cells were seeded on a 96-well culture plate at densities (in number of cells/well) of 1.3 × 10^4 for MDCKII-par, MDCKII-ABCB1 and MDCKII-ABCG2; 1.2 × 10^4 for A431-par, A431-ABCB1, A431-ABCG2 and A431-ABCC1; 1.2 × 10^4 for NCI-H1299; 1.0 × 10^4 for A459; 2.0 × 10^4 for Caco-2; 5.0 × 10^4 for LS174T; and 1.0 × 10^4 for primary NSCLC explants. On the other hand, for XTT cells were seeded with densities 2.0 × 10^4 for HL60-par, HL60-ABCB1, HL60-ABCG2 and HL60-ABCC1 cells/well on 96-well plates. […] Following 48 h incubation with drugs, Opti-MEM solutions of MTT or XTT (1 mg/mL) with phenazine methosulfate solution (7.50 μg/mL; only for XTT) was added and the cells were incubated for 1 h with the exception of HL60s that were incubated for 5 h.

[6] = target: T2, CYP2C19 (Homo sapiens, UniProt P33261); assay: Vivid CYP450 Screening Kit, recombinant CYP2C19; format: in vitro ADME; conditions: recombinant enzyme; read-out: CYP2C19 inhibition IC50
T2 construct: purchased Thermo Fisher Scientific
Procedure: as §1

[7] = system: A431-par cells; assay: MTT proliferation / drug combination assay; format: cell-based; conditions: 48 h, read-out: A431-par IC50
Procedure: as §2
Based on the computed CI values, the effects of drug combinations were classified as synergistic (CI < 0.9), additive (0.9 < CI < 1.1) or antagonistic (CI > 1.1).

[8] = target: T3, CYP1A2 (Homo sapiens, UniProt P05177); assay: Vivid CYP450 Screening Kit, recombinant CYP1A2; format: in vitro ADME
T3 construct: purchased Thermo Fisher Scientific
Procedure: as §1

T3 sequence (P05177 2-516 limits assumed): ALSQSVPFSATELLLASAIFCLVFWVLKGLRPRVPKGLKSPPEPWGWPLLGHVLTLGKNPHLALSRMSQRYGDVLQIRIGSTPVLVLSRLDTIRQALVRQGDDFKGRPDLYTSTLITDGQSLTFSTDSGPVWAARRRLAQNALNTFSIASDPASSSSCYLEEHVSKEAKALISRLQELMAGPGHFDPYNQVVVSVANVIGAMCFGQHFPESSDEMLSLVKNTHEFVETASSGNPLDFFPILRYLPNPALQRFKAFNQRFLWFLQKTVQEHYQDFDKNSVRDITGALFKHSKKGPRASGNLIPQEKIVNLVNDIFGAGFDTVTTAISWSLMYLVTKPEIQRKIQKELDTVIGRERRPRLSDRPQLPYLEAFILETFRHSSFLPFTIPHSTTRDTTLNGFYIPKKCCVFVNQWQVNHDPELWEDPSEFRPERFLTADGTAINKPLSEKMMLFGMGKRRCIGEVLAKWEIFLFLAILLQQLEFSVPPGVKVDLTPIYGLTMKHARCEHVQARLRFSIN
T1 sequence (P11712 whole entry): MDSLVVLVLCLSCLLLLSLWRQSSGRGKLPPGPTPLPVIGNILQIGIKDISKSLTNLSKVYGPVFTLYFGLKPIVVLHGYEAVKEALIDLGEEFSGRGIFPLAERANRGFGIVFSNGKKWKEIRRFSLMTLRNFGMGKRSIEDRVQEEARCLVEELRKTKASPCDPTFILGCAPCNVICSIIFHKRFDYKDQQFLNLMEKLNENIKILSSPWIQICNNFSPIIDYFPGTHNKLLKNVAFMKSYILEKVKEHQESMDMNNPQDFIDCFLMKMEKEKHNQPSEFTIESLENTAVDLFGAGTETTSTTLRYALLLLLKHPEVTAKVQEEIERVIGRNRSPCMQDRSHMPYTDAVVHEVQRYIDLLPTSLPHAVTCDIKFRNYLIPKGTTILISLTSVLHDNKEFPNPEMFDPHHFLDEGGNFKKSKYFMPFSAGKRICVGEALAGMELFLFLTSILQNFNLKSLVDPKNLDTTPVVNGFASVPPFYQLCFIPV
T2 sequence (P33261 whole entry): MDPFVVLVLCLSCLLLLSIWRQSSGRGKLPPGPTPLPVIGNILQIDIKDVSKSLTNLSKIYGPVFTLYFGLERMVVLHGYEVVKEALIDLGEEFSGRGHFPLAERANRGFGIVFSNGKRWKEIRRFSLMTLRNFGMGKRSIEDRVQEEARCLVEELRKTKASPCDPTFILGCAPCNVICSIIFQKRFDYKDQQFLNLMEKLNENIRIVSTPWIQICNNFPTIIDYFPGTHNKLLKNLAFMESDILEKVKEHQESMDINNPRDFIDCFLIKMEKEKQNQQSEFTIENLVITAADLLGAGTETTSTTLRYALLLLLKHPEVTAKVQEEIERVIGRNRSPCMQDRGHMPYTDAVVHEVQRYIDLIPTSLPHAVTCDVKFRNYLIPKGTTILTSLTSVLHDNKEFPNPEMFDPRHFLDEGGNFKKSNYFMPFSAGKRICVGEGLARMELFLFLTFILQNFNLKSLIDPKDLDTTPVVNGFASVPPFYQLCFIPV

In the case of `CN1CCC(COc2cnc(-c3cccc(Cn4nc(-c5cccc(C#N)c5)ccc4=O)c3)nc2)CC1` [tepotinib, Tepotinib], the IC50 at 48 h [1] was 19.6 µM, the “Effect on expression of clinically relevant ABC transporters and CYPs” value [2] was “did not influence expression” and the pIC50 [3] was 5.77. For the same molecule, the “Effect on anticancer effect of paclitaxel and vincristine” value [4] was “potentiate the anticancer effect of paclitaxel and vincristine”, the pIC50 [5] was 4.79 and the pIC50 [6] was 4.77. The pIC50 [7] was 4.80 and the pIC50 [8] was < 4.30.
